Data published in ChEMBL document CHEMBL1799962, “Indolin-2-one p38α inhibitors I: design, profiling and crystallographic binding mode” (Bioorg Med Chem Lett, 2011).
Values after ≈ are worked out from the molar mass of the structure shown.

Key:
[1] = AUC (0 to infinity) in rat at 1 mg/kg, iv; assay type: ADME, organism-based; set-up: time infinity, dose 1 mg/kg, route intravenous; conditions: plasma
[2] = Thermodynamic solubility of the compound in aqueous buffer at pH 7.4 at 37 degC by HPLC-UV analysis; assay type: physicochemical; conditions: read-out: Therm_solubility
[3] = Oral bioavailability in rat at 10 mg/kg; assay type: ADME, organism-based; conditions: in vivo
[4] = Terminal half life in rat at 1 mg/kg, iv; assay type: ADME, organism-based; set-up: dose 1 mg/kg, route intravenous; conditions: in vivo, read-out: beta t1/2 (converted)
[5] = Apparent permeability from apical to basolateral side in human Caco2 cells at 12.5 uM; assay type: ADME, cell-based; conditions: Caco-2
[6] = Cmax in rat at 1 mg/kg, iv; assay type: ADME, organism-based; set-up: dose 1 mg/kg, route intravenous; conditions: in vivo
[7] = Cmax in rat at 10 mg/kg, po; assay type: ADME, organism-based; set-up: dose 10 mg/kg, route oral; conditions: in vivo
[8] = Primary phase half life in rat at 1 mg/kg, iv; assay type: ADME, organism-based; set-up: dose 1 mg/kg, route intravenous; conditions: in vivo, read-out: alphat1/2
[9] = Apparent permeability from basolateral to apical side in human Caco2 cells at 12.5 uM; assay type: ADME, cell-based; conditions: Caco-2
[10] = Volume of distribution at steady state in rat at 1 mg/kg, iv; assay type: ADME, organism-based; set-up: dose 1 mg/kg, route intravenous; conditions: in vivo, read-out: Vdss
[11] = Clearance in rat at 1 mg/kg, iv; assay type: ADME, organism-based; set-up: dose 1 mg/kg, route intravenous; conditions: in vivo

Cc1ccc(C(=O)NC2CC2)cc1-c1ccc2c(c1)NC(=O)C21CCCC1
AUC(0-inf) [1]: 2530 ng·h/mL | solubility thermodynamic [2]: 3 µg/mL (≈ 8.32 µM) | bioavailability [3]: 10% | half-life [4]: 5.3 h | Papp A→B at 12.5 µM [5]: 18 ×10⁻⁶ cm/s | Cmax [6]: 2000 ng/mL | Cmax [7]: 367 ng/mL | half-life [8]: < 1 h | Papp B→A at 12.5 µM [9]: 10 ×10⁻⁶ cm/s | Vd [10]: 0.8 L/kg | clearance [11]: 6.6 mL/min/kg
